# Measurements published in US8753841B2, “Enzyme that catalyzes a peptide-forming reaction from a carboxy component and an amine component, microbe producing the same, and a method of producing a dipeptide using the enzyme or microbe” (Ajinomoto Co., Inc., priority 2002, dated 2014).
# *: point of attachment. Boc = CC(C)(C)OC(=O)*
# B1: Papain: thiol endopeptidase described in EP 359399B1, purified enzyme manufactured by Sigma (protein, UniProt P00784 134-345, looked up)
# Papain: IPEYVDWRQKGAVTPVKNQGSCGSCWAFSAVVTIEGIIKIRTGNLNEYSEQELLDCDRRSYGCNGGYPWSALQLVAQYGIHYRNTYPYEGVQRYCRSREKGPYAAKTDGVRQVQPYNEGALLYSIANQPVSVVLEAAGKDFQLYRGGIFVGPCGNKVDHAVAAVGYGPNYILIKNSWGTGWGENGYIRIKRGTGNSYGVCGLYTSSFYPVKN
# Legend:
# [1] = system: peptide-forming enzyme from Empedobacter brevis strain FERM BP-8113; experiment: Enzyme inhibitors: effect on L-alanyl-L-glutamine production by the Mono S fraction enzyme; format: biochemical; details: for inhibition of the enzyme by serine enzyme inhibitors (in words): pH 9.0, 25° C.
# [2] = system: Empedobacter brevis strain FERM BP-8113 microbial cells; experiment: Production of peptide using microbial cells of Empedobacter brevis; format: cell-based; details: 1 mL 100 g/L cell suspension + 1 mL buffer with 200 mM carboxy component, 400 mM amino acid, 10 mM EDTA, pH 9.0, 18° C., 2 hours
# Procedure: A 50 mL medium (pH 6.2) containing 5 grams (g) of glucose, 5 g of ammonium sulfate, 1 g of monopotassium phosphate, 3 g of dipotassium phosphate, 0.5 g of magnesium sulfate, 10 g of yeast extract and 10 g of peptone in 1 liter (L) was transferred to a 500 mL Sakaguchi flask and sterilized at 115° C. for 15 minutes.
# Microbial cells were collected by centrifuging (10,000 rounds per minute (rpm), 15 minutes) the culture broth obtained in Example 1, followed by suspending them to a concentration of 100 g/L in 100 mM borate buffer (pH 9.0) containing 10 mM EDTA. After respectively adding 1 mL of the suspension to 1 mL each of 100 mM borate buffer solutions (pH 9.0) containing 10 mM EDTA, 200 mM of the following carboxy components, and 400 mM of the following amino acids to make a final volume of 2 mL, the reaction was carried out at 18° C. for 2 hours.
# [3] = system: enzyme derived from Sphingobacterium sp. strain FERM BP-8124; experiment: Substrate specificity of enzyme derived from Sphingobacterium sp.; format: biochemical; set-up: key to Produced peptide (mM): +: those peptides for which production was confirmed but which were unable to be quantified due to the absence of a standard; a trace amount; details: carboxy component 100 mM, 0.33 units enzyme, pH 9.0, 25° C., 1.5 hours; for Produced peptide (mM): Table 15-4
# enzyme derived from Sphingobacterium sp. strain FERM BP-8124, sequence (as listed by the source): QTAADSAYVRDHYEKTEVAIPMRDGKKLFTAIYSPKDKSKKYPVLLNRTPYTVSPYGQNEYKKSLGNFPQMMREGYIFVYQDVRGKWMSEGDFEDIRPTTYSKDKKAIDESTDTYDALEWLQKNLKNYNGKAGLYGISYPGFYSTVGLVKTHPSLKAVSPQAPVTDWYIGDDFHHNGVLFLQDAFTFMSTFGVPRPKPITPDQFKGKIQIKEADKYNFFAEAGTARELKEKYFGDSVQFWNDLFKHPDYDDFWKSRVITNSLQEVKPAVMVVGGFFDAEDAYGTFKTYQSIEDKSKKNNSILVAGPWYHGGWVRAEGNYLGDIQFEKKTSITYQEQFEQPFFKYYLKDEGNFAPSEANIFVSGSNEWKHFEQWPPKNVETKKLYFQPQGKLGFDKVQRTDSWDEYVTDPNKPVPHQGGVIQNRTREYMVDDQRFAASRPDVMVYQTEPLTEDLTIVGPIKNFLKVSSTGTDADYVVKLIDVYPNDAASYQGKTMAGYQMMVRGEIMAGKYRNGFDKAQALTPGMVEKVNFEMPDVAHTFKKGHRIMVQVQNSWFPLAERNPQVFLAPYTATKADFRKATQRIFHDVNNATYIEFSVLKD
# [4] = system: peptide-forming enzyme from Empedobacter brevis strain FERM BP-8113; experiment: Substrate specificity of enzyme (peptide production from carboxy and amine components); format: biochemical; details: pH 9.0, 25° C., 3 hours; for Formed peptide: L-amino acid amide hydrochloride 100 mM as carboxy component, L-amino acid 150 mM
# [5] = system: peptide-forming enzyme from Empedobacter brevis strain FERM BP-8113; experiment: as above; format: biochemical; set-up: key to Formed peptide (mM): +: those peptides for which production was confirmed but which were unable to be quantified due to the absence of a standard; a trace amount; details: L-amino acid methyl ester hydrochloride 100 mM, pH 9.0, 25° C., 3 hours
# From the text: Ester specificity was examined in the case of using L-amino acid ester for the carboxy component. […] HCl represents hydrochloride in Table 4.
# Peptide production was examined in the case of using L-alanine methyl ester for the carboxy component and using various L-amino acids for the amine component.
# Peptide production was examined in the case of using various types of L-amino acid methyl esters for the carboxy component and using L-glutamine for the amine component. […] Furthermore, Tween-80 was added to the reaction system to a final concentration of 0.1% in the case of using L-Trp-OMe and L-Tyr-OMe.
# [6] = system: peptide-forming enzyme from Empedobacter brevis strain FERM BP-8113; experiment: as above; format: biochemical; set-up: key: +: those for which production was confirmed but which were unable to be quantified due to the absence of a standard; a trace amount
# [7] = Comparison of ability to catalyze peptide formation with known enzymes; format: biochemical; details: enzyme of present invention = 100.0
# From the text: The peptide-forming ability of the present enzyme was compared with that of known enzymes. Carboxypeptidase Y described in EP 278787A1 and the thiol endopeptidases (ficin, papain, bromelain, and chymopapain) described in EP 359399B1 were used as the known enzymes, and they were used in the form of purified enzymes (manufactured by Sigma). The enzyme uniformly purified in Example 3 was used as a source of the present enzyme of the present invention. […] As has been described above, the present enzyme was verified to have an extremely high peptide production rate unlike any known enzyme in the prior art. Furthermore, the enzyme of the present invention is a dimer having a molecular weight of about 75,000. In contrast, the molecular weight of the carboxypeptidase Y has been reported to be about 61,000, while the molecular weight of thiol endopeptidase has been reported to be about 23,000 to 36,000. Thus, the L-alanyl-L-glutamine production rate of the enzyme of the present invention as compared to those of the carboxypeptidase Y and the thiol endopeptidase is even greater when the rate is expressed per molecular weight than when it is expressed per unit weight as indicated in the examples.
# [8] = system: peptide-forming enzyme from Empedobacter brevis strain FERM BP-8113; experiment: Substrate specificity of enzyme (peptide production from carboxy and amine components); format: biochemical; set-up: key: +: those peptides for which production was confirmed but which were unable to be quantified due to the absence of a standard; a trace amount; details: 0.1 unit enzyme, 25° C.
# [9] = inhibitor at 10 mM, borate buffer pH 9.0, 25° C., 5 minutes, 100 = absence of enzyme inhibitor
# [10] = Table 15-1, amine component 150 mM
# [11] = Table 15-3, amine component 150 mM
# [12] = carboxy component 100 mM, amine component 150 mM, reaction time 3 hr
# [13] = oligopeptide production, amount of enzyme 0.2 unit, pH 9.0, 25° C., 3 hours
molecule,measurement,setting,value
O=S(=O)(F)Cc1ccccc1 [Phenylmethylsulfonyl fluoride],Relative activity of L-Ala-L-Gln production (%),[1]; [9],115%
same,inhibition of the enzyme by serine enzyme inhibitors (in words),"[1]; inhibitor at 10 mM, 5 minutes",not inhibited
L-Ala-L-Leu,Formed peptide,[2],38.2 mM
same,Produced peptide,[3]; [10],33.0 mM
O=C(O)CI [Monoiodoacetate],Relative activity of L-Ala-L-Gln production (%),[1]; pH 9,101%
L-Ala-L-Met,Formed peptide,[2],68.3 mM
same,Produced peptide,[3]; [10],86.9 mM
same,Produced peptide (mM),[3]; amine component 150 mM,tr
same,Formed peptide,[4],3.4 mM
L-Ala-L-Arg,Formed peptide,[2],72.1 mM
same,Produced peptide,[3]; [10],72.2 mM
L-Ile-L-Met,Formed peptide,[2],8.3 mM
same,Formed peptide,[5]; L-amino acid 150 mM,10.0 mM
same,Produced peptide,[3]; [11],5.1 mM
H-Ala-2-Nal-OH,Produced peptide (mM),"[6]; carboxy component 20 mM, amine component 20 mM, 0.1 unit enzyme, 25° C., reaction time 3 hr",+
Ficin,Ratio of L-Ala-L-Gln production rate per enzyme unit weight,[7],0.0017
H—Cl—F-Phe-H-Gln-OH,Produced peptide (mM),"[8]; carboxy component 25 mM, amine component 50 mM, reaction time 3 hr",tr
"N=C(N)Nc1ccc(C(=O)Oc2ccc([N+](=O)[O-])cc2)cc1 [p-Nitrophenyl-p′-guanidino benzoate, p-nitrophenyl-p′-guanidinobenzoate]",Relative activity of L-Ala-L-Gln production (%),[1]; [9],0.1%
same,inhibition of the enzyme by serine enzyme inhibitors (in words),"[1]; inhibitor at 10 mM, 5 minutes",inhibited
H—N—Me-Ala-Phe-OH,Produced peptide (mM),[8]; [12],tr
H-t-Leu-H-Gln-OH,Produced peptide (mM),[8]; [12],tr
c1cnc2c(c1)ccc1cccnc12 [o-Phenanthroline],Relative activity of L-Ala-L-Gln production (%),[1]; [9],96%
"Chymopapain: thiol endopeptidase described in EP 359399B1, purified enzyme manufactured by Sigma",Ratio of L-Ala-L-Gln production rate per enzyme unit weight,[7],0.0013
L-Val-L-Met,Formed peptide,[2],10.5 mM
same,Formed peptide,[5]; L-amino acid 150 mM,10.3 mM
same,Produced peptide,[3]; [11],6.8 mM
H-2-Nal-H-Gln-OH,Produced peptide (mM),"[8]; carboxy component 40 mM, amine component 40 mM, reaction time 3 hr",tr
L-Ala-L-Ser,Formed peptide,[2],51.3 mM
same,Produced peptide,[3]; [10],43.8 mM
L-Ser-L-Gln,Formed peptide,[5]; 150 mM L-glutamine,24.0 mM
same,Produced peptide,"[3]; Table 15-2, L-Gln 150 mM",12.9 mM
L-Thr-L-Val,Formed peptide,[5]; L-amino acid 150 mM,0.7 mM
same,Produced peptide,[3]; [11],1.3 mM
L-Tyr-L-Gln,Formed peptide,[5]; 150 mM L-glutamine,3.4 mM
same,Produced peptide,"[3]; Table 15-2, L-Gln 150 mM",0.6 mM
H-CHA-Phe-OH,Produced peptide (mM),"[6]; carboxy component 40 mM, amine component 40 mM, 0.1 unit enzyme, 25° C., reaction time 3 hr",+
H-Lys(Boc)-Gln-OH,Produced peptide (mM),"[6]; carboxy component 100 mM, amine component 150 mM, 0.1 unit enzyme, 25° C., reaction time 2 hr",+
L-Thr-L-Met,Formed peptide,[5]; L-amino acid 150 mM,38.6 mM
same,Produced peptide,[3]; [11],28.9 mM
L-Ala-Gly-L-Phe,Produced peptide (mM),"[6]; oligopeptide production, amount of enzyme 0.1 unit, pH 9.0, 25° C., 3 hours",+
Gly-L-Gln,Formed peptide,[5]; 150 mM L-glutamine,54.7 mM
same,Produced peptide,"[3]; Table 15-2, L-Gln 150 mM",61.1 mM
L-Ser-L-Ser,Formed peptide,[2],29.0 mM
same,Formed peptide,[5]; L-amino acid 150 mM,38.0 mM
same,Produced peptide,[3]; [11],9.9 mM
L-Met-L-Phe,Formed peptide,[2],28.5 mM
same,Formed peptide,[5]; L-amino acid 150 mM,34.0 mM
same,Produced peptide,[3]; [11],8.9 mM
L-Ile-L-Phe,Formed peptide,[5]; L-amino acid 150 mM,5.2 mM
same,Produced peptide,[3]; [11],1.5 mM
Gly-L-Phe,Formed peptide,[5]; L-amino acid 150 mM,44.0 mM
same,Produced peptide,[3]; [11],20.0 mM
same,Produced peptide,"[4]; oligopeptide production, amount of enzyme 0.1 unit",17.3 mM
L-Phe-L-Gln,Formed peptide,[5]; 150 mM L-glutamine,0.9 mM
same,Produced peptide,"[3]; Table 15-2, L-Gln 150 mM",0.8 mM
same,Formed peptide,[4],0.2 mM
H-p-F-Phe-H-Gln-OH,Produced peptide (mM),[8]; [12],tr
Bromelain,Ratio of L-Ala-L-Gln production rate per enzyme unit weight,[7],0.0010
L-Ala-L-Phe-L-Met,Produced peptide (mM),[6]; [13],+
L-Arg-L-Ser,Formed peptide,[5]; L-amino acid 150 mM,3.6 mM
same,Produced peptide,[3]; [11],2.2 mM
L-Ala-L-Phe,Formed peptide,[2],62.4 mM
same,Produced peptide,[3]; [10],69.5 mM
Gly-L-His,Formed peptide,[2],22.1 mM
same,Formed peptide,[5]; L-amino acid 150 mM,31.6 mM
same,Produced peptide,[3]; [11],36.2 mM
Gly-L-Lys,Formed peptide,[5]; L-amino acid 150 mM,9.8 mM
same,Produced peptide,[3]; [11],48.2 mM
L-Thr-L-Leu,Formed peptide,[2],23.0 mM
same,Formed peptide,[5]; L-amino acid 150 mM,28.4 mM
same,Produced peptide,[3]; [11],15.3 mM
CCN1C(=O)C=CC1=O [N-Ethyl maleimide],Relative activity of L-Ala-L-Gln production (%),[1]; [9],110%
"O=C(O)CN(CCN(CC(=O)O)CC(=O)O)CC(=O)O [EDTA, ethylene diamine tetraacetic acid]",Relative activity of L-Ala-L-Gln production (%),[1]; [9],96%
H-Ser(tBu)-Gln-OH,Produced peptide (mM),"[8]; carboxy component 100 mM, amine component 150 mM, reaction time 2 hr",tr
L-Ala-L-His,Formed peptide,[2],52.1 mM
same,Produced peptide,[3]; [10],73.6 mM
same,Produced peptide (mM),[3]; amine component 150 mM,tr
same,Formed peptide,[4],3.9 mM
α-L-Asp-L-Gln,Formed peptide (mM),[5]; 150 mM L-glutamine,tr
same,Produced peptide,"[3]; Table 15-2, L-Gln 150 mM",0.05 mM
L-Ala-Gly-Gly-L-Phe-L-Met,Produced peptide (mM),[6]; [13],+
Gly-L-Arg,Formed peptide,[5]; L-amino acid 150 mM,25.5 mM
same,Produced peptide,[3]; [11],17.9 mM
L-Met-L-Gln,Formed peptide,[5]; 150 mM L-glutamine,12.0 mM
same,Produced peptide,"[3]; Table 15-2, L-Gln 150 mM",32.6 mM
L-Thr-L-Ala,Formed peptide,[5]; L-amino acid 150 mM,9.4 mM
same,Produced peptide,[3]; [11],5.8 mM
L-Thr-L-Gln,Formed peptide,[5]; 150 mM L-glutamine,81.9 mM
same,Produced peptide,"[3]; Table 15-2, L-Gln 150 mM",36.1 mM
same,Formed peptide,[4],0.3 mM
B1,Ratio of L-Ala-L-Gln production rate per enzyme unit weight,[7],0.0021
